Results: patent publication US20200216417A1, “INHIBITORS OF FIBROBLAST ACTIVATION PROTEIN” (Praxis Biotech LLC, priority 2019, published 2020)
Blank lines part the entries; values can stand above or below the molecule they belong to.

Assays:
[1] = molecular target: T1, recombinant human FAPα (rhFAPα) (Homo sapiens, UniProt Q12884); assay: FAPα enzymatic exopeptidase (dipeptidase) activity assay, Z-Gly-Pro-AMC; type: biochemical; conditions: for rhFAPα (% exo inh @ 1 μM) / inhibition at 1 µM: exopeptidase inhibition at 1 μM test compound; for IC50: read-out: rhFAP IC50; for inhibition at 1 µM: read-out: rhFAPα % exo inh @ 1 μM
T1 construct: purchased R&S system (so in the source)
T1 sequence (Q12884 1-760): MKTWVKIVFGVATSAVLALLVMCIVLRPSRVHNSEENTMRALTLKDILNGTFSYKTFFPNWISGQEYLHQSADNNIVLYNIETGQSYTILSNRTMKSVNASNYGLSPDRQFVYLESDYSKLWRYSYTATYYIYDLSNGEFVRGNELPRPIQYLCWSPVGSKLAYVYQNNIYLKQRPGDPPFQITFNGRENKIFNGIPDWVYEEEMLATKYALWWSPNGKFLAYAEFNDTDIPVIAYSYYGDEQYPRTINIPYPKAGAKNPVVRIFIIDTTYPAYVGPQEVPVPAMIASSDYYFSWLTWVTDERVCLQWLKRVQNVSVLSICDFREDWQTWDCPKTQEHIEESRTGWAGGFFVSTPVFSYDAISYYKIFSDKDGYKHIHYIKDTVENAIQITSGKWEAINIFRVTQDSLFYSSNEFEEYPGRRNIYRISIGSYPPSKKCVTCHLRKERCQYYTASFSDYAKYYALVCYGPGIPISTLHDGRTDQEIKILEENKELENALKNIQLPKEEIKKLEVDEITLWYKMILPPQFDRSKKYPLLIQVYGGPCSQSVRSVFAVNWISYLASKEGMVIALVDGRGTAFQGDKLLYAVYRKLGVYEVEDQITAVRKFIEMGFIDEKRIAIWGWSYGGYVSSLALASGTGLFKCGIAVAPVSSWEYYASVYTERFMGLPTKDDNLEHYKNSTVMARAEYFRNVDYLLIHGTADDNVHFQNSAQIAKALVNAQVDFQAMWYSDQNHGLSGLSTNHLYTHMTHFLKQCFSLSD

DPPIV = molecular target: T2, DPPIV (Mus musculus, UniProt P28843); assay: DPPIV enzymatic activity in mouse plasma (H-Gly-Pro-AMC); type: biochemical, C57BL/6 mouse; conditions: H-Gly-Pro-AMC substrate
T2 construct: from tissue; host or cells: C57BL/6 mouse plasma (EDTA)
Method: Approximately 500 μL of whole blood from one C57BL/6 mouse was harvested into BD Microtainer® tubes (K2) EDTA (#365974, Becton Dickinson and Co.) via terminal cardiac puncture. The blood sample was immediately centrifuged at approximately 9000 g at 4° C. for 5 minutes. Plasma was separated and stored at −80° C. in aliquots of 300 μL. To assay baseline DPPIV enzymatic exopeptidase activity, 5 μL of thawed, mouse plasma was diluted (1:5) in buffer (100 mM Tris-HCl, 400 mM NaCl, 50 mM salicylic acid, 1 mM EDTA, pH 7.5) and mixed with 35 μL of the same buffer before being pre-incubated with different concentrations of 10 μL of test compounds or DMSO vehicle for 15 minutes at 37° C. in 96-well black plates (Nunc, #237108). After pre-incubation, 50 μL of 200 μM dipeptide substrate H-Gly-Pro-AMC (Bachem, # L-1225) was added to the mixture. The assay was performed for 1 hour at 37° C. 7-Amino-4-Methylcoumarin (AMC) release was detected measuring fluorescence at an excitation wavelength of 360 nm and an emission wavelength of 460 nm using a Multifunction Microplate Reader (Synergy 4, Biotek). All measurements were carried out at least in duplicate.

[2] = upon standing in pH 7.8; cyclization (Narra et al., 2007); cited from earlier work
[3] = tested on: human AML cell line MV4-11; assay: Cytotoxicity assay in human leukemia cell lines (Cell-Titer Glo); conditions: MV4-11, 48 h, read-out: MV4-11 viability IC50, μM
[4] = molecular target: T3, recombinant human DPPIV (rhDPPIV) (Homo sapiens, UniProt P27487); assay: DPPIV enzymatic activity assay, H-Gly-Pro-pNA; type: biochemical; conditions: Table 3B
T3 construct: purchased R&S system (so in the source)

[5] = molecular target: T4, recombinant human PREP (rhPREP) (Homo sapiens, UniProt P48147); assay: PREP enzymatic activity assay, Z-Gly-Pro-AMC; type: biochemical; conditions: Table 3B
T4 sequence (P48147 1-710): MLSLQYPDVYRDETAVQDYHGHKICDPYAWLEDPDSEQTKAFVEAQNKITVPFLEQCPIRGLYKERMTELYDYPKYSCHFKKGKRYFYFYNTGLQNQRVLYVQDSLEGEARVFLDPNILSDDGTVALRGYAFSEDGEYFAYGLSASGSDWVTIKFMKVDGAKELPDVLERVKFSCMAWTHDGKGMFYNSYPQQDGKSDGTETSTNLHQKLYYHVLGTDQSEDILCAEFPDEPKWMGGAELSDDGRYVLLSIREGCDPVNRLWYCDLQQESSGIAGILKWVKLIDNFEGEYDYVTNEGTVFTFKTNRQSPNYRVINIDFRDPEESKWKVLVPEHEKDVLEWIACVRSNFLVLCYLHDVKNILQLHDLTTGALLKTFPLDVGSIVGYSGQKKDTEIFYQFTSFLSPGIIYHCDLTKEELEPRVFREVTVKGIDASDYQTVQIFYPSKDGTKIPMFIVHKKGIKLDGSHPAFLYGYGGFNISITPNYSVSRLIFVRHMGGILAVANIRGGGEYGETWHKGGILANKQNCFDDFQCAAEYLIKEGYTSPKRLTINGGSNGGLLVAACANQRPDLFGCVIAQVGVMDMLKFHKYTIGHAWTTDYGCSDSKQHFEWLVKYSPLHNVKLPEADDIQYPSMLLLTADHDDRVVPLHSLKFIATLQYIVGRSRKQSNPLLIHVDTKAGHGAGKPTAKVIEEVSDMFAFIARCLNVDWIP

[6] = molecular target: T5, recombinant human DPP9 (rhDPP9) (Homo sapiens, UniProt Q86TI2); assay: DPP9 inhibition assay, 10 ng rhDPP9, Tris-HCl/BSA buffer; type: biochemical; conditions: Table 3B
T5 construct: purchased R&S system / R&D systems (both sic) 5419-SE
T5 sequence (Q86TI2 whole entry): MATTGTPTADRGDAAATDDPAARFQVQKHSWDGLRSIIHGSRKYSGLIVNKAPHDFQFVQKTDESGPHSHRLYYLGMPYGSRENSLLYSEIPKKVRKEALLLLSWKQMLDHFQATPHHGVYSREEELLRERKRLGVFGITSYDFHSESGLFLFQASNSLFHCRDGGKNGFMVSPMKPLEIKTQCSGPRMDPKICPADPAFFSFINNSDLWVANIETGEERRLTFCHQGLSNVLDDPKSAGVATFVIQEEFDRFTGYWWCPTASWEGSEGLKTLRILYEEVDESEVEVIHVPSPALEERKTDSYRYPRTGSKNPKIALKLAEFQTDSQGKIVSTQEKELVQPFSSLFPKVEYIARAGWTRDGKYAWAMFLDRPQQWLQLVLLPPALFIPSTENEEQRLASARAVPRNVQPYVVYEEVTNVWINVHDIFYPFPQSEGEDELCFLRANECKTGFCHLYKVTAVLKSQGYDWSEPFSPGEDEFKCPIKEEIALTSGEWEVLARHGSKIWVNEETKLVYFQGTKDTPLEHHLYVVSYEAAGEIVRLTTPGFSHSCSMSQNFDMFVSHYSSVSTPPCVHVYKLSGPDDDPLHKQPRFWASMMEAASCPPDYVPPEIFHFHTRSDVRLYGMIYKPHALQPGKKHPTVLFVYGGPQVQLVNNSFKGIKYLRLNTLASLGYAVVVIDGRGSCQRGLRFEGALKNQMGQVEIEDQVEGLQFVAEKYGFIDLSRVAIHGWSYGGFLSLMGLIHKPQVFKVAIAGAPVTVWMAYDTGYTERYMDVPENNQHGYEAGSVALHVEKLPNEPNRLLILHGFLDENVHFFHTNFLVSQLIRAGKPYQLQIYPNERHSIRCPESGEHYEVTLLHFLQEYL

T3 sequence (P27487 whole entry): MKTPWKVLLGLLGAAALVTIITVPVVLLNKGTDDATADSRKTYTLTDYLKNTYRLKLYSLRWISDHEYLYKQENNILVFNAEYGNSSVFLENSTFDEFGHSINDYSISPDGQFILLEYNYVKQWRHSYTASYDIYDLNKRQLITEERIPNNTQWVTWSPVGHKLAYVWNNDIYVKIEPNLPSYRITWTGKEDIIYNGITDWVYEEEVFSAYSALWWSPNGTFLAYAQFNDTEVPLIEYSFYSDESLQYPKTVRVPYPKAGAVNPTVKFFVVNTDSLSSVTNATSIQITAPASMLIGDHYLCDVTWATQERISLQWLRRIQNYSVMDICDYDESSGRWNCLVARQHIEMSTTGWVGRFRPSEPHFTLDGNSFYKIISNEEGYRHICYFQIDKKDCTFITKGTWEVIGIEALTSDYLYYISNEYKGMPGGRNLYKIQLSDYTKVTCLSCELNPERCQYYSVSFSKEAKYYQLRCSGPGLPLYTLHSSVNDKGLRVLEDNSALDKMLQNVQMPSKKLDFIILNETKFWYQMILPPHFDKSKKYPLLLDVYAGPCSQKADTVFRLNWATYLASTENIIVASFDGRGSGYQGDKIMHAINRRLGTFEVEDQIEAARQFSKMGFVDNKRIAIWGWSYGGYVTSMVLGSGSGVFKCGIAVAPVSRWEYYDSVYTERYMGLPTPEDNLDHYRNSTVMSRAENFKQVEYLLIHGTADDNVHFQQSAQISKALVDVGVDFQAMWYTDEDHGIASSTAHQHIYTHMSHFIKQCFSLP
T2 sequence (P28843 37-760 limits assumed): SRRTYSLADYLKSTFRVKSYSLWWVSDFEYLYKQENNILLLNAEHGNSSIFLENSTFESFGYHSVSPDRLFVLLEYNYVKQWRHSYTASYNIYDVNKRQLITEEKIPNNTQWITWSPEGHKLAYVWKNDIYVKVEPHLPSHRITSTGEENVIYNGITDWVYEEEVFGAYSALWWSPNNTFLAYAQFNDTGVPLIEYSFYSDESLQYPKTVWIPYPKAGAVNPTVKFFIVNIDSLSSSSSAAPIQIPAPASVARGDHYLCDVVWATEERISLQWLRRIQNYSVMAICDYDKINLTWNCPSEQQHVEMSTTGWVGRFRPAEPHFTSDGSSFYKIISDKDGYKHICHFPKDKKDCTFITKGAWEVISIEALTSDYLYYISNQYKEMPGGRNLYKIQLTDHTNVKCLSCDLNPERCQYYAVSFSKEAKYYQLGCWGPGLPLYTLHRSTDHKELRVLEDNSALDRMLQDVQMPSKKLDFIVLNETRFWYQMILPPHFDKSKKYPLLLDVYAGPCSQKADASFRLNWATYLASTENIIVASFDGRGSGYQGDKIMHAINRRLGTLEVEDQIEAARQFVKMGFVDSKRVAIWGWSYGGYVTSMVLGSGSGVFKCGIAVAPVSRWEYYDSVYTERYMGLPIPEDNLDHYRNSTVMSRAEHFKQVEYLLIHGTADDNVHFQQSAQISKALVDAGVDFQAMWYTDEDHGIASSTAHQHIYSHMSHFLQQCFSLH

Compound: N#CC1CC(F)(F)CN1C(=O)CNC(=O)c1ccnc2ccccc12 (centres unmarked) [Ref. Comp., reference compound]
rhFAPα (% exo inh @ 1 μM) ([1]; Table 2): +++ (+++ refers to >50% inhibition at 1 μM test compound)
rhFAPα (% exo inh @ 1 μM) ([1]; Table 3B): +++ (+++ refers to >50% inhibition at 1 μM test compound)
IC50 (DPPIV): < 10000 nM

Compound: CC(C)[C@H](N)C(=O)N1CCC[C@H]1B(O)O [Val-boroPro, reference compound]
stability of protease inhibitory activity [2]: rapidly loses protease inhibitory activity
IC50 [3]: < 3 µM

Compound: N#C[C@@H]1CC(F)(F)CN1C(=O)CNC(=O)c1ccncc1/C=C/c1ccc2cc(Cl)ccc2c1 [Compound 40]
IC50 [4]: 1000 to 10000 nM
IC50 [5]: > 10000 nM
IC50 [3]: 3 to 10 µM
IC50 [6]: < 1000 nM
IC50 ([1]; Table 3B): < 1000 nM
inhibition at 1 µM ([1]; Table 3B): > 50%

Compound: COc1ccc(C#Cc2ccc3nccc(C(=O)NCC(=O)N4CC(F)(F)C[C@H]4C#N)c3c2)cc1 [Compound 41]
IC50 [4]: > 10000 nM
IC50 [5]: > 10000 nM
IC50 [3]: > 10 µM
IC50 [6]: < 1000 nM
IC50 ([1]; Table 3B): < 1000 nM
inhibition at 1 µM ([1]; Table 3B): > 50%

Second part, led by results:

IC50 [4]: > 10000 nM
IC50 [5]: > 10000 nM
IC50 [6]: < 1000 nM
IC50 ([1]; Table 3B): < 1000 nM
inhibition at 1 µM ([1]; Table 3B): > 50%
Compound: COc1ccc(/C=C/c2ccc3nccc(C(=O)NCC(=O)N4CC(F)(F)C[C@H]4C#N)c3c2)cc1 [Compound 47]
IC50 [3]: 3 to 10 µM

IC50 [4]: > 10000 nM
IC50 [5]: > 10000 nM
IC50 [6]: < 1000 nM
IC50 ([1]; Table 3B): < 1000 nM
inhibition at 1 µM ([1]; Table 3B): > 50%
Compound: N#C[C@@H]1CC(F)(F)CN1C(=O)CNC(=O)c1ccnc2ccc(/C=C/c3ccc(Cl)cc3)cc12 [Compound 34]
IC50 [3]: < 3 µM

IC50 [4]: > 10000 nM
IC50 [5]: > 10000 nM
IC50 [6]: < 1000 nM
IC50 ([1]; Table 3B): < 1000 nM
inhibition at 1 µM ([1]; Table 3B): > 50%
Compound: COc1cc(/C=C/c2ccc3nccc(C(=O)NCC(=O)N4CC(F)(F)C[C@H]4C#N)c3c2)ccn1 [Compound 193]
IC50 [3]: < 3 µM

IC50 [4]: 1000 to 10000 nM
IC50 [5]: > 10000 nM
IC50 [6]: < 1000 nM
IC50 ([1]; Table 3B): < 1000 nM
inhibition at 1 µM ([1]; Table 3B): > 50%
Compound: N#C[C@@H]1CC(F)(F)CN1C(=O)CNC(=O)c1ccnc2ccc(/C=C/c3ccnc(C(F)(F)F)c3)cc12 [Compound 194]
IC50 [3]: < 3 µM
